Results published in ChEMBL document CHEMBL1201862, “PubChem BioAssay data set” (2004).
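Each compound was tested at five concentrations against cells in 96-well plates for 48 hours. GI50 is the concentration that inhibits growth by half.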 Calls of active or inactive are those of the source. No stated cut-off is given here; in the data, active = GI50 up to about 1.1 µM and inactive = higher.

Assays:
Test in all cases: NCI-60 cell line screen, 48 h
786-0 = system: 786-0
A498 = system: A498
A549 = system: A549
ACHN = system: ACHN
BT-549 = system: BT-549
CAKI-1 = system: CAKI-1
CCRF-CEM = system: CCRF-CEM
COLO 205 = system: COLO 205
DU-145 = system: DU-145
EKVX = system: EKVX
HCC 2998 = system: HCC 2998
HCT-116 = system: HCT-116
HCT-15 = system: HCT-15
HL-60 = system: HL-60
HOP-62 = system: HOP-62
HOP-92 = system: HOP-92
HT-29 = system: HT-29
Hs-578T = system: Hs-578T
IGROV-1 = system: IGROV-1
K562 = system: K562
KM12 = system: KM12
LOX IMVI = system: LOX IMVI
M14 = system: M14
MCF7 = system: MCF7
MDA-MB-231 = system: MDA-MB-231
MDA-MB-435 = system: MDA-MB-435
MDA-N = system: MDA-N
MOLT-4 = system: MOLT-4
Malme-3M = system: Malme-3M
NCI-H226 = system: NCI-H226
NCI-H23 = system: NCI-H23
NCI-H460 = system: NCI-H460
NCI-H522 = system: NCI-H522
NCI/ADR-RES = system: NCI/ADR-RES
OVCAR-3 = system: OVCAR-3
OVCAR-4 = system: OVCAR-4
OVCAR-5 = system: OVCAR-5
OVCAR-8 = system: OVCAR-8
PC-3 = system: PC-3
RPMI-8226 = system: RPMI-8226
RXF 393 = system: RXF 393
SF-268 = system: SF-268
SF-295 = system: SF-295
SF-539 = system: SF-539
SK-MEL-28 = system: SK-MEL-28
SK-MEL-2 = system: SK-MEL-2
SK-MEL-5 = system: SK-MEL-5
SK-OV-3 = system: SK-OV-3
SN12C = system: SN12C
SNB-19 = system: SNB-19
SNB-75 = system: SNB-75
SR = system: SR
SW-620 = system: SW-620
T47D = system: T47D
TK-10 = system: TK-10
U-251 = system: U-251
UACC-257 = system: UACC-257
UACC-62 = system: UACC-62
UO-31 = system: UO-31

With `COP(=O)(OC)c1ccc(NCc2cc(O)ccc2O)cc1` the GI50 (786-0) was 25.2 µM (inactive), the GI50 (A498) was 92.7 µM (inactive) and the GI50 (A549) was > 100 µM (inactive). For the same molecule, the GI50 (ACHN) was 18.3 µM (inactive), the GI50 (BT-549) was 17.9 µM (inactive) and the GI50 (CAKI-1) was 19.2 µM (inactive). The GI50 (CCRF-CEM) was 18.8 µM (inactive), the GI50 (COLO 205) was 27.7 µM (inactive) and the GI50 (DU-145) was 36.8 µM (inactive). The GI50 (EKVX) was 23.1 µM (inactive), the GI50 (HCC 2998) was 23 µM (inactive) and the GI50 (HCT-116) was 24.8 µM (inactive). For the same molecule, the GI50 (HCT-15) was 21.3 µM, the GI50 (HL-60) was 21.4 µM (inactive) and the GI50 (HOP-62) was 35.8 µM (inactive). For the same molecule, the GI50 (HOP-92) was 21.4 µM (inactive), the GI50 (HT-29) was 24.8 µM (inactive) and the GI50 (Hs-578T) was 24.8 µM (inactive). The GI50 (IGROV-1) was 30.3 µM (inactive), the GI50 (K562) was 30.5 µM (inactive) and the GI50 (KM12) was 19.9 µM (inactive). The GI50 (LOX IMVI) was 26.3 µM (inactive), the GI50 (M14) was 13.8 µM (inactive) and the GI50 (MCF7) was 28.8 µM (inactive). The GI50 (MDA-MB-231) was 26.9 µM (inactive), the GI50 (MDA-MB-435) was 26.8 µM (inactive) and the GI50 (MDA-N) was 26.3 µM (inactive). For the same molecule, the GI50 (MOLT-4) was 30.2 µM (inactive), the GI50 (Malme-3M) was 18.9 µM (inactive) and the GI50 (NCI-H226) was 38.9 µM (inactive). The GI50 (NCI-H23) was 34.1 µM (inactive), the GI50 (NCI-H460) was 22.1 µM (inactive) and the GI50 (NCI-H522) was 17.3 µM (inactive). The GI50 (NCI/ADR-RES) was 31 µM (inactive), the GI50 (OVCAR-3) was 6.34 µM (inactive) and the GI50 (OVCAR-4) was 27 µM (inactive). For the same molecule, the GI50 (OVCAR-5) was 23.9 µM (inactive), the GI50 (OVCAR-8) was 26.8 µM (inactive) and the GI50 (PC-3) was > 60.4 µM (inactive). The GI50 (RPMI-8226) was 19.5 µM (inactive), the GI50 (RXF 393) was 25.3 µM (inactive) and the GI50 (SF-268) was 17.6 µM (inactive). The GI50 (SF-295) was 17.3 µM (inactive), the GI50 (SF-539) was 21.2 µM (inactive) and the GI50 (SK-MEL-28) was 30.2 µM (inactive). For the same molecule, the GI50 (SK-MEL-2) was 46.6 µM (inactive), the GI50 (SK-MEL-5) was 22.1 µM (inactive) and the GI50 (SK-OV-3) was > 100 µM (inactive). For the same molecule, the GI50 (SN12C) was 30.3 µM (inactive), the GI50 (SNB-19) was 37.8 µM (inactive) and the GI50 (SNB-75) was 29.5 µM (inactive). For the same molecule, the GI50 (SR) was 14.3 µM (inactive), the GI50 (SW-620) was 42 µM (inactive) and the GI50 (T47D) was 28.8 µM (inactive). The GI50 (TK-10) was 23.4 µM (inactive), the GI50 (U-251) was 30.6 µM (inactive) and the GI50 (UACC-257) was 22.2 µM (inactive). For the same molecule, the GI50 (UACC-62) was 19.5 µM (inactive) and the GI50 (UO-31) was 15.5 µM (inactive).

In the case of `COc1ccc(C2C(=O)c3ccc(OC)cc3OC2c2cccnc2)cc1` (stereo not drawn), the GI50 (786-0) is reported as 83.2 µM (inactive), the GI50 (A498) is reported as > 100 µM (inactive) and the GI50 (A549) is reported as > 100 µM (inactive). For the same molecule, the GI50 (ACHN) was > 100 µM (inactive), the GI50 (BT-549) was 49.9 µM (inactive) and the GI50 (CAKI-1) was > 100 µM (inactive). The GI50 (CCRF-CEM) was > 100 µM (inactive), the GI50 (COLO 205) was > 100 µM (inactive) and the GI50 (DU-145) was > 100 µM (inactive). For the same molecule, the GI50 (EKVX) was > 100 µM (inactive), the GI50 (HCC 2998) was > 100 µM (inactive) and the GI50 (HCT-116) was > 100 µM (inactive). The GI50 (HCT-15) was greater than 100 µM, the GI50 (HL-60) was > 100 µM (inactive) and the GI50 (HOP-62) was 33.2 µM (inactive). The GI50 (HOP-92) was 22.5 µM (inactive), the GI50 (HT-29) was > 100 µM (inactive) and the GI50 (Hs-578T) was 45.1 µM (inactive). The GI50 (IGROV-1) was > 100 µM (inactive), the GI50 (K562) was > 100 µM (inactive) and the GI50 (KM12) was > 100 µM (inactive). The GI50 (LOX IMVI) was > 100 µM (inactive), the GI50 (M14) was > 100 µM (inactive) and the GI50 (MCF7) was > 100 µM (inactive). For the same molecule, the GI50 (MDA-MB-231) was > 100 µM (inactive), the GI50 (MDA-MB-435) was > 100 µM (inactive) and the GI50 (MDA-N) was > 100 µM (inactive). For the same molecule, the GI50 (MOLT-4) was > 100 µM (inactive), the GI50 (Malme-3M) was > 100 µM (inactive) and the GI50 (NCI-H226) was 44.2 µM (inactive). For the same molecule, the GI50 (NCI-H23) was > 100 µM (inactive), the GI50 (NCI-H460) was > 100 µM (inactive) and the GI50 (NCI-H522) was > 100 µM (inactive). The GI50 (NCI/ADR-RES) was > 100 µM (inactive), the GI50 (OVCAR-3) was > 100 µM (inactive) and the GI50 (OVCAR-4) was > 100 µM (inactive). The GI50 (OVCAR-5) was > 100 µM (inactive), the GI50 (OVCAR-8) was 56 µM (inactive) and the GI50 (PC-3) was > 100 µM (inactive). For the same molecule, the GI50 (RPMI-8226) was > 100 µM (inactive), the GI50 (RXF 393) was 86.3 µM (inactive) and the GI50 (SF-268) was 49.8 µM (inactive). For the same molecule, the GI50 (SF-295) was 46.6 µM (inactive), the GI50 (SF-539) was > 100 µM (inactive) and the GI50 (SK-MEL-28) was > 100 µM (inactive). The GI50 (SK-MEL-2) was > 100 µM (inactive), the GI50 (SK-MEL-5) was > 100 µM (inactive) and the GI50 (SK-OV-3) was 43.2 µM (inactive). For the same molecule, the GI50 (SN12C) was > 100 µM (inactive), the GI50 (SNB-19) was 92.7 µM (inactive) and the GI50 (SNB-75) was 34.8 µM (inactive). The GI50 (SR) was > 100 µM (inactive), the GI50 (SW-620) was > 100 µM (inactive) and the GI50 (T47D) was > 100 µM (inactive). For the same molecule, the GI50 (TK-10) was 46.7 µM (inactive), the GI50 (U-251) was 70.3 µM (inactive) and the GI50 (UACC-257) was > 100 µM (inactive). The GI50 (UACC-62) was > 100 µM (inactive) and the GI50 (UO-31) was > 100 µM (inactive).
